One block for each compound: values may come before it.
How the values were obtained:
[1] = biological target: T1, cGMP-inhibited 3',5'-cyclic phosphodiesterase 3B (Homo sapiens, UniProt Q13370); assay: Inhibition of human PDE3B using FAM-3',5'-cAMP as substrate after 1 hr by fluorescence polarization assay
Target sequence in this assay (Q13370 whole entry): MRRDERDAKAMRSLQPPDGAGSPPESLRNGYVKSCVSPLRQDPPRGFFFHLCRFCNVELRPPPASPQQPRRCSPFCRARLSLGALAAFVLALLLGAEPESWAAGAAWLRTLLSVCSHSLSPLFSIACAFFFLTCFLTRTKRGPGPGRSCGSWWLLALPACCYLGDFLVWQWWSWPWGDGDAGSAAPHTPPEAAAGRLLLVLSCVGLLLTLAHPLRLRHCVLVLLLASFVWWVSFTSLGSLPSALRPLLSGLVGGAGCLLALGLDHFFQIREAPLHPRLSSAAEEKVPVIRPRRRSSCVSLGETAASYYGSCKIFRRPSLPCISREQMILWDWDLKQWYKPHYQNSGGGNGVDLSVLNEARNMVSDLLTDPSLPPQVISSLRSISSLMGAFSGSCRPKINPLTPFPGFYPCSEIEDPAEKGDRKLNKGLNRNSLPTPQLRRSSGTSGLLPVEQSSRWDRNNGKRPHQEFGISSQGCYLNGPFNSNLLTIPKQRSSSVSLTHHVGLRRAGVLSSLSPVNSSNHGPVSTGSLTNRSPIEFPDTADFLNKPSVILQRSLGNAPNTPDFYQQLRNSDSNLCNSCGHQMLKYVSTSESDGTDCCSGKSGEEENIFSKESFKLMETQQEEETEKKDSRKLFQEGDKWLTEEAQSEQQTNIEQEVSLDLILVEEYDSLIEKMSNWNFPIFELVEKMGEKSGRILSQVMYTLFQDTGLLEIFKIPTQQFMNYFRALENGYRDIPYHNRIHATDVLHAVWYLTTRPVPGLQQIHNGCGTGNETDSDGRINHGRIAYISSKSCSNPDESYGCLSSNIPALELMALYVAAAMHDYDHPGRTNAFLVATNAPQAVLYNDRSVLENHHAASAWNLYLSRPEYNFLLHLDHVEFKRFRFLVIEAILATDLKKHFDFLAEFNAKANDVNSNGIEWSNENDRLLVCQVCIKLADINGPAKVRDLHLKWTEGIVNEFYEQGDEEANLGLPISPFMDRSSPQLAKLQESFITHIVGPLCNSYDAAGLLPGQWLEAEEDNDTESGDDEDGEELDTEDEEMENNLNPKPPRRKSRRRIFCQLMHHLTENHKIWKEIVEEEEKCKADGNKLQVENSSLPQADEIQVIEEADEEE

[2] = biological target: T2, cGMP-dependent 3',5'-cyclic phosphodiesterase (Homo sapiens, UniProt O00408); assay: Inhibition of human PDE2A at 10^4 nM using FAM-3',5'-cAMP as substrate after 1 hr by fluorescence polarization assay relative to control
[3] = biological target: T3, High affinity cAMP-specific and IBMX-insensitive 3',5'-cyclic phosphodiesterase 8A (Homo sapiens, UniProt O60658); assay: Inhibition of human PDE8A1 at 10^4 nM using FAM-3',5'-cAMP as substrate after 1 hr by fluorescence polarization assay relative to control
[4] = biological target: T4, 3',5'-cyclic-AMP phosphodiesterase 4B (Homo sapiens, UniProt Q07343); assay: Inhibition of full length human PDE4B1 at 10^4 nM using FAM-3',5'-cAMP as substrate after 1 hr by fluorescence polarization assay relative to control
[5] = biological target: T5, cAMP and cAMP-inhibited cGMP 3',5'-cyclic phosphodiesterase 10A (Homo sapiens, UniProt Q9Y233); assay: Inhibition of human PDE10A2 at 10^4 nM using FAM-3',5'-cAMP as substrate after 1 hr by fluorescence polarization assay relative to control
[6] = biological target: T3, High affinity cAMP-specific and IBMX-insensitive 3',5'-cyclic phosphodiesterase 8A; assay: Inhibition of human PDE8A1 using FAM-3',5'-cAMP as substrate after 1 hr by fluorescence polarization assay
[7] = biological target: T4, 3',5'-cyclic-AMP phosphodiesterase 4B; assay: Inhibition of full length human PDE4B1 using FAM-3',5'-cAMP as substrate after 1 hr by fluorescence polarization assay
[8] = biological target: T5, cAMP and cAMP-inhibited cGMP 3',5'-cyclic phosphodiesterase 10A; assay: Inhibition of human PDE10A2 using FAM-3',5'-cAMP as substrate after 1 hr by fluorescence polarization assay
[9] = biological target: T6, Dual specificity calcium/calmodulin-dependent 3',5'-cyclic nucleotide phosphodiesterase 1A (Homo sapiens, UniProt P54750); assay: Inhibition of human PDE1A using FAM-3',5'-cAMP as substrate after 1 hr by fluorescence polarization assay
[10] = biological target: T7, 3',5'-cyclic-AMP phosphodiesterase 4D (Homo sapiens, UniProt Q08499); assay: Inhibition of full length human PDE4D7 using FAM-3',5'-cAMP as substrate after 1 hr by fluorescence polarization assay
[11] = biological target: T8, Dual 3',5'-cyclic-AMP and -GMP phosphodiesterase 11A (Homo sapiens, UniProt Q9HCR9); assay: Inhibition of human PDE11A using FAM-3',5'-cAMP as substrate after 1 hr by fluorescence polarization assay
[12] = biological target: T9, cGMP-specific 3',5'-cyclic phosphodiesterase (Homo sapiens, UniProt O76074); assay: Inhibition of human PDE5A at 10^4 nM using FAM-3',5'-cAMP as substrate after 1 hr by fluorescence polarization assay relative to control
[13] = biological target: T10, 3',5'-cyclic-AMP phosphodiesterase 4A (Homo sapiens, UniProt P27815); assay: Inhibition of full length human PDE4A4 at 10^4 nM using FAM-3',5'-cAMP as substrate after 1 hr by fluorescence polarization assay relative to control
[14] = biological target: T11, High affinity cGMP-specific 3',5'-cyclic phosphodiesterase 9A (Homo sapiens, UniProt O76083); assay: Inhibition of human PDE9A2 using FAM-3',5'-cAMP as substrate after 1 hr by fluorescence polarization assay
[15] = biological target: T11, High affinity cGMP-specific 3',5'-cyclic phosphodiesterase 9A; assay: Inhibition of human PDE9A2 at 10^4 nM using FAM-3',5'-cAMP as substrate after 1 hr by fluorescence polarization assay relative to control
Homo sapiens = species on record: Homo sapiens; assay: Potency index, ratio of rolipram IC50 to test compound IC50 for human PDE4 catalytic domain
[16] = biological target: T2, cGMP-dependent 3',5'-cyclic phosphodiesterase; assay: Inhibition of human PDE2A using FAM-3',5'-cAMP as substrate after 1 hr by fluorescence polarization assay
[17] = biological target: T6, Dual specificity calcium/calmodulin-dependent 3',5'-cyclic nucleotide phosphodiesterase 1A; assay: Inhibition of human PDE1A at 10^4 nM using FAM-3',5'-cAMP as substrate after 1 hr by fluorescence polarization assay relative to control
[18] = biological target: T12, 3',5'-cyclic-AMP phosphodiesterase 4C (Homo sapiens, UniProt Q08493); assay: Inhibition of full length human PDE4C1 at 10^4 nM using FAM-3',5'-cAMP as substrate after 1 hr by fluorescence polarization assay relative to control
[19] = biological target: T1, cGMP-inhibited 3',5'-cyclic phosphodiesterase 3B; assay: Inhibition of human PDE3B at 10^4 nM using FAM-3',5'-cAMP as substrate after 1 hr by fluorescence polarization assay relative to control
Target sequence in this assay (Q13370 whole entry, looked up): as the sequence (Q13370 whole entry) above

[20] = biological target: T13, Cone cGMP-specific 3',5'-cyclic phosphodiesterase subunit alpha' (Homo sapiens, UniProt P51160); assay: Inhibition of human PDE6C at 10^4 nM using FAM-3',5'-cAMP as substrate after 1 hr by fluorescence polarization assay relative to control
[21] = biological target: T14, High affinity 3',5'-cyclic-AMP phosphodiesterase 7A (Homo sapiens, UniProt Q13946); assay: Inhibition of human PDE7A at 10^4 nM using FAM-3',5'-cAMP as substrate after 1 hr by fluorescence polarization assay relative to control
[22] = biological target: T7, 3',5'-cyclic-AMP phosphodiesterase 4D; assay: Inhibition of full length human PDE4D7 at 10^4 nM using FAM-3',5'-cAMP as substrate after 1 hr by fluorescence polarization assay relative to control
[23] = biological target: T13, Cone cGMP-specific 3',5'-cyclic phosphodiesterase subunit alpha'; assay: Inhibition of human PDE6C using FAM-3',5'-cAMP as substrate after 1 hr by fluorescence polarization assay
[24] = biological target: T14, High affinity 3',5'-cyclic-AMP phosphodiesterase 7A; assay: Inhibition of human PDE7A using FAM-3',5'-cAMP as substrate after 1 hr by fluorescence polarization assay
[25] = biological target: T8, Dual 3',5'-cyclic-AMP and -GMP phosphodiesterase 11A; assay: Inhibition of human PDE11A at 10^4 nM using FAM-3',5'-cAMP as substrate after 1 hr by fluorescence polarization assay relative to control
[26] = biological target: T9, cGMP-specific 3',5'-cyclic phosphodiesterase; assay: Inhibition of human PDE5A using FAM-3',5'-cAMP as substrate after 1 hr by fluorescence polarization assay
[27] = biological target: T10, 3',5'-cyclic-AMP phosphodiesterase 4A; assay: Inhibition of full length human PDE4A4 using FAM-3',5'-cAMP as substrate after 1 hr by fluorescence polarization assay
[28] = Inhibition of human PDE4 catalytic domain using FAM-3',5'-cAMP as substrate after 1 hr by fluorescence polarization assay
[29] = biological target: T12, 3',5'-cyclic-AMP phosphodiesterase 4C; assay: Inhibition of full length human PDE4C1 using FAM-3',5'-cAMP as substrate after 1 hr by fluorescence polarization assay
BV-2 = assay: Antineuroinflammatory activity in mouse BV2 cells assessed as inhibition of LPS-induced TNFalpha production; type: functional, cell-based

T11 sequence (O76083 whole entry): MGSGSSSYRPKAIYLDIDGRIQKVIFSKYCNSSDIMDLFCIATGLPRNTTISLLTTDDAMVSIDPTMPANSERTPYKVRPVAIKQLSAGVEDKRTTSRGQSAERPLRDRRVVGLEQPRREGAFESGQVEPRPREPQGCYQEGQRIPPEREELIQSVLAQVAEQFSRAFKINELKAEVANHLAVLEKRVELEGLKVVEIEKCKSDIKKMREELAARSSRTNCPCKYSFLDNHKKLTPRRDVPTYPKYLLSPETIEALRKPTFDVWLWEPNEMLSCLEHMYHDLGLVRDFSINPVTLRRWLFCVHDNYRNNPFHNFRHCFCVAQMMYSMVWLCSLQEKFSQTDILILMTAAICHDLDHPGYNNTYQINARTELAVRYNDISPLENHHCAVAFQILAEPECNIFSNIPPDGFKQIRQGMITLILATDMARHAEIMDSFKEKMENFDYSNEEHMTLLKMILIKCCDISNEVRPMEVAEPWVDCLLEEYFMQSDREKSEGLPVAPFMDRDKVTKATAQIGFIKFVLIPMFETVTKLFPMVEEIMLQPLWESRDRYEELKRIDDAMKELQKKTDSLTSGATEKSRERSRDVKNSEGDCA
T14 sequence (Q13946 whole entry): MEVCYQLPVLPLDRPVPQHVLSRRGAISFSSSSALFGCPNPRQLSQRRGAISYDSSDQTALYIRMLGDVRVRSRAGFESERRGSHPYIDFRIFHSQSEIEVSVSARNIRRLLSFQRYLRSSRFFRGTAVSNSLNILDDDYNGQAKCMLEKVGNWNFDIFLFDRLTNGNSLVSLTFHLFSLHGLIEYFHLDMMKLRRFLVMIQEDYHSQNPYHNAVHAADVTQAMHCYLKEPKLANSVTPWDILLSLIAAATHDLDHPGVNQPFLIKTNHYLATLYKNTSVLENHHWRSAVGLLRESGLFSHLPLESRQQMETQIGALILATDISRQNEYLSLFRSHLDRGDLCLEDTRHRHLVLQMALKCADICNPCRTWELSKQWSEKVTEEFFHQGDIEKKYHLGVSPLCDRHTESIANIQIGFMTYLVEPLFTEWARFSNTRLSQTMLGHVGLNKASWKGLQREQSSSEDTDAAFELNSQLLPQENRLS
T7 sequence (Q08499 whole entry): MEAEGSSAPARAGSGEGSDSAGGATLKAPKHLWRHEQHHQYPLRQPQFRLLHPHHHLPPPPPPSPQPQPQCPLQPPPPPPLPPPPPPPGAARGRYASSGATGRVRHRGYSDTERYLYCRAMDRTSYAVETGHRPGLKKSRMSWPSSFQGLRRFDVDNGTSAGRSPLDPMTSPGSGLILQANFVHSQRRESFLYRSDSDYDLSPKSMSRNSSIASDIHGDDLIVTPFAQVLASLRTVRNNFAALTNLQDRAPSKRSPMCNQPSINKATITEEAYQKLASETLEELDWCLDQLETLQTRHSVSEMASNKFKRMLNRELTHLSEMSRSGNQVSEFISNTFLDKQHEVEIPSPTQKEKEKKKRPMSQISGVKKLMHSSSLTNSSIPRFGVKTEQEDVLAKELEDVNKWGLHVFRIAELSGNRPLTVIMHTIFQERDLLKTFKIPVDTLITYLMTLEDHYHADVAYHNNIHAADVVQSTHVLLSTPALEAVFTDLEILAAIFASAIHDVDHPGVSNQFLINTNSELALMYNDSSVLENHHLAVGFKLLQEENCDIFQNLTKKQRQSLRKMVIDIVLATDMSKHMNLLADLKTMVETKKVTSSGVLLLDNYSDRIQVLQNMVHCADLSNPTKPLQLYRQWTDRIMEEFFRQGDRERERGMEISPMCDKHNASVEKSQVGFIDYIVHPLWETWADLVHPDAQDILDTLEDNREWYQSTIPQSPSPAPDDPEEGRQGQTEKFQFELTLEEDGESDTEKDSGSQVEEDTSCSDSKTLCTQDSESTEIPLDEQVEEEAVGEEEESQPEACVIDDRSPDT
T10 sequence (P27815 whole entry): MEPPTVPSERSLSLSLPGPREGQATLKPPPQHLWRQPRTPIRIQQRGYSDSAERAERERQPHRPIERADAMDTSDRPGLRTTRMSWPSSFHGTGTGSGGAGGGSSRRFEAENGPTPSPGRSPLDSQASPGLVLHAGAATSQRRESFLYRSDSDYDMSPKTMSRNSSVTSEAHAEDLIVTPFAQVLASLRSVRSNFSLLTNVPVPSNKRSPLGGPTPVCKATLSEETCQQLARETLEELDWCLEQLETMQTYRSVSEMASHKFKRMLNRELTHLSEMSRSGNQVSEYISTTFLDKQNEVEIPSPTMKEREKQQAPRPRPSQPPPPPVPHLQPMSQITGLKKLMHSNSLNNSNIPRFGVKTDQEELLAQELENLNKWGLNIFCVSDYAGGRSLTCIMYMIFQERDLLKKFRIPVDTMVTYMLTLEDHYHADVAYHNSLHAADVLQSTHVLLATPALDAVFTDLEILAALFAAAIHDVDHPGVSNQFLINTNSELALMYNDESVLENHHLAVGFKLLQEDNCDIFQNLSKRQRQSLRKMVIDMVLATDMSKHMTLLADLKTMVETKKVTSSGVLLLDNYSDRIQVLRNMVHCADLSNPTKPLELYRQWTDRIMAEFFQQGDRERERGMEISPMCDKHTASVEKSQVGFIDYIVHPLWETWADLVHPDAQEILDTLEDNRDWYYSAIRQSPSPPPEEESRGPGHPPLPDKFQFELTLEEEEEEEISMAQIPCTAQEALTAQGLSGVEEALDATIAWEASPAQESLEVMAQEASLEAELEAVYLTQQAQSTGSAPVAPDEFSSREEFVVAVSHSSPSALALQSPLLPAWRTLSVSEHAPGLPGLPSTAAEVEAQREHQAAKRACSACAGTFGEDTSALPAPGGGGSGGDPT
T3 sequence (O60658 whole entry): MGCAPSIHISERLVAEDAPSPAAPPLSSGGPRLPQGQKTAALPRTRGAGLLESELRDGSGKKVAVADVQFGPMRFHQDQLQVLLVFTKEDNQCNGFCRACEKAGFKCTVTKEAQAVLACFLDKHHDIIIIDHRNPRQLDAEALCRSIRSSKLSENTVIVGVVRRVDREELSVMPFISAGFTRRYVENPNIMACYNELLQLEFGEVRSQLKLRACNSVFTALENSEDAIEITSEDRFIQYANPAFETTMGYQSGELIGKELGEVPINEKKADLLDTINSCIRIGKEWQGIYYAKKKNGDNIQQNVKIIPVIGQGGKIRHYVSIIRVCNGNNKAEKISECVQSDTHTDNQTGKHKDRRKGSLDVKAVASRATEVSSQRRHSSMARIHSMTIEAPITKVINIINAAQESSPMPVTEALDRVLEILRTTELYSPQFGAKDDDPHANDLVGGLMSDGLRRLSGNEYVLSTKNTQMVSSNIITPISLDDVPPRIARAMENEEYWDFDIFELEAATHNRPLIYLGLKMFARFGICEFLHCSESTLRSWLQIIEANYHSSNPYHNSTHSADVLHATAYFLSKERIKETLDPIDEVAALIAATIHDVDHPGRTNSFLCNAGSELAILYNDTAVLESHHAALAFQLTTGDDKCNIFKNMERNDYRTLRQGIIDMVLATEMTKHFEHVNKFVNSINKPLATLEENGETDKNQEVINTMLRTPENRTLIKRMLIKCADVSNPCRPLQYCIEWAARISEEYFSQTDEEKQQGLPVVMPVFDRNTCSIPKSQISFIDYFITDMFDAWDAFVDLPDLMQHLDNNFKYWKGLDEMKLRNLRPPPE

Compound: CN(C(=O)c1ccc(OC(F)F)c(OCC2CC2)c1)c1ccccn1
IC50 [28]: 2500 nM

Compound: COc1ccc(C(=O)N(C)c2ccccn2)cc1OCC1CC1
IC50 [28]: 25100 nM

Compound: COc1ccc(C(=O)Nc2cccnc2)cc1OCC1CC1
Ratio IC50 (Homo sapiens): < 18
IC50 [28]: 360 nM

Compound: COc1ccc(C2CNC(=O)C2)cc1OC1CCCC1 (configuration not stated) [ROLIPRAM]
IC50 [28]: 550 nM

Compound: CN(C(=O)c1ccc(OC(F)F)c(OC2CCCC2)c1)c1ccccn1
IC50 [28]: 1400 nM

Compound: COc1ccc(C(=O)N(C)c2ccccn2)cc1OC1CCCC1
IC50 [28]: 9700 nM

These reach a lower IC50 [28]. Values come first.

IC50 [1]: > 100 µM
inhibition [2]: 28%
inhibition [3]: 10%
inhibition [4]: 100%
inhibition [5]: 6%
IC50 [6]: > 100 µM
IC50 [7]: 144 nM
IC50 [8]: > 100 µM
IC50 [9]: > 100 µM
IC50 [10]: 22 nM
IC50 [11]: > 100 µM
inhibition [12]: 7%
inhibition [13]: 98%
IC50 [14]: > 100 µM
inhibition [15]: 6%
Ratio IC50 (Homo sapiens): < 18
IC50 [16]: > 100 µM
inhibition [17]: 3%
inhibition [18]: 97%
inhibition [19]: 6%
inhibition [20]: 2%
inhibition [21]: 3%
inhibition [22]: 99%
IC50 [23]: > 100 µM
IC50 [24]: > 100 µM
inhibition [25]: 7%
IC50 [26]: > 100 µM
IC50 [27]: 95 nM
IC50 [28]: 30 nM
IC50 [29]: 400 nM
Compound: O=C(Nc1ccccc1Cl)c1ccc(OC(F)F)c(OC2CCCC2)c1

Ratio IC50 (Homo sapiens): < 18
IC50 [28]: 220 nM
Compound: O=C(Nc1ccccc1)c1ccc(OC(F)F)c(OCC2CC2)c1

Ratio IC50 (Homo sapiens): < 18
IC50 [28]: 240 nM
Compound: O=C(Nc1ccccc1)c1ccc(OC(F)F)c(OC2CCCC2)c1

IC50 [1]: > 100 µM
inhibition [2]: 23%
inhibition [3]: 22%
inhibition [4]: 99%
inhibition [5]: 14%
IC50 [6]: > 100 µM
IC50 [7]: 34 nM
IC50 [8]: > 100 µM
IC50 [9]: > 100 µM
IC50 [10]: 71 nM
inhibition [12]: 23%
inhibition [13]: 98%
IC50 [14]: > 100 µM
inhibition [15]: 8%
Ratio IC50 (Homo sapiens): < 18
IC50 [16]: > 100 µM
inhibition [17]: 20%
inhibition [18]: 98%
inhibition [19]: 6%
inhibition [20]: 28%
inhibition [21]: 7%
inhibition [22]: 100%
IC50 [23]: > 100 µM
IC50 [24]: > 100 µM
inhibition [25]: 85%
IC50 [26]: > 100 µM
IC50 [27]: 76 nM
IC50 [28]: 69 nM
IC50 [29]: 269 nM
Compound: O=C(Nc1cccnc1)c1ccc(OC(F)F)c(OCC2CC2)c1

Ratio IC50 (Homo sapiens): < 18
IC50 [28]: 310 nM
Compound: COc1ccc(C(=O)Nc2cccnc2)cc1OC1CCCC1

IC50 [1]: > 100 µM
inhibition [2]: 26%
inhibition [3]: 9%
inhibition [4]: 99%
inhibition [5]: 9%
IC50 [6]: > 100 µM
IC50 [7]: 39 nM
IC50 [8]: > 100 µM
IC50 [9]: > 100 µM
IC50 [10]: 68 nM
inhibition [12]: 12%
inhibition [13]: 98%
IC50 [14]: > 100 µM
inhibition [15]: 4%
Ratio IC50 (Homo sapiens): < 18
IC50 [16]: > 100 µM
inhibition [17]: 0%
inhibition [18]: 98%
inhibition [19]: 6%
inhibition [20]: 16%
inhibition [21]: 3%
inhibition [22]: 99%
IC50 [23]: > 100 µM
IC50 [24]: > 100 µM
inhibition [25]: 76%
IC50 [26]: > 100 µM
IC50 [27]: 117 nM
IC50 [28]: 140 nM
IC50 [29]: 294 nM
Compound: O=C(Nc1cccnc1)c1ccc(OC(F)F)c(OC2CCCC2)c1

IC50 [1]: > 100 µM
inhibition [2]: 8%
inhibition [3]: 3%
inhibition [4]: 98%
inhibition [5]: 3%
IC50 [6]: > 100 µM
IC50 [7]: 166 nM
IC50 [8]: > 100 µM
IC50 [9]: > 100 µM
IC50 [10]: 39 nM
IC50 [11]: > 100 µM
inhibition [12]: 12%
inhibition [13]: 100%
IC50 [14]: > 100 µM
inhibition [15]: 3%
Ratio IC50 (Homo sapiens): < 18
IC50 [16]: > 100 µM
inhibition [17]: 6%
inhibition [18]: 96%
inhibition [19]: 13%
inhibition [20]: 2%
inhibition [21]: 7%
inhibition [22]: 99%
IC50 [23]: > 100 µM
IC50 [24]: > 100 µM
inhibition [25]: 5%
IC50 [26]: > 100 µM
IC50 [27]: 126 nM
IC50 [28]: 90 nM
IC50 [29]: 501 nM
Compound: O=C(Nc1ccccc1Cl)c1ccc(OC(F)F)c(OCC2CC2)c1
inhibition (BV-2): Dose-dependent effect

Reference: ChEMBL document CHEMBL3875154 (Eur J Med Chem, 2016)
